What was measured:
[1] = biological target: T1, NLRC4 inflammasome (Mus musculus, UniProt Q3UP24); experiment: NLRC4 inflammasome activation assay: IL-1β release, microglia from NLRP3 KO mice, LPS and flagellin; format: cell-based; details: FIG. 3A
T1 construct: endogenous in cells; host or cells: primary microglia from NLRP3 KO mice
Experimental: AIM2, NLRP7, and NLRC4 inflammasomes activation assays. […] AIM2 inflammasome activation was induced through the addition of 100 ng/ml LPS for 2 hours, followed by transfection of 1 μg poly(dA:dT) using Lipofectamine 2000 during 2 hours, following the manufacturer recommendations. NLRC4 was activated by treatment with 150 ng/ml LPS for 2 hours, before transfection of 1 μg flagellin during 2 hours, using lipofectamine 2000 as transfection reagent. Negative and positive controls were pre-treated with the same DMSO percentage as cells treated with the inhibitors. Negative controls were kept untreated after DMSO addition, while LPS-poly(dA:dT) or LPS-flagellin was added to positive controls for AIM2, and NLRC4 activation, respectively. For activation of the NLRP7 inflammasome different conditions were assessed: treatment of WT microglia cultures with 400 ng/ml fibroblast-stimulating lipopeptide-1 (fsl-1) for 7 hours, priming with 150 ng/ml LPS for 1 hour and treatment with 400 ng/ml fsl-1 for 7 hours, and priming with 150 ng/ml LPS and transfection of 400 ng/ml fsl-1 with lipofectamine. MCC950 was used as a negative control for NLRC4 and AIM-2 inhibition. Cells were pretreated with 5 μM MCC950 before LPS addition, and 2 hours later the NLRC4 and AIM-2 activation was induced through addition of their specific activators. Cell supernatants were collected for IL-1β measurement.
Cytokine quantification. IL-1β in cell supernatants and brain tissue samples—after the different treatment groups—was quantified using the Mouse IL-1 beta/IL-1F2 DuoSet ELISA kit (R&D systems), IL-6 in cell culture supernatant was measured through the Mouse IL-6 ELISA kit (ThermoFisher), TNF-α in cell culture supernatants was determined using the Mouse TNF-alpha DuoSet ELISA (R*D systems), and IL-18 in brain tissue was measured through the IL-18 Mouse ELISA Kit (Invitrogen) following the manufacturers' recommended protocol. IL-1β precursor and cleaved IL-1β in the FC of mice treated with vehicles, LPS, or C77-LPS was assessed by western blot. All samples were run in technical duplicates.

[2] = biological target: T2, Human recombinant NLRP3 protein (Homo sapiens, UniProt Q96P20); experiment: Inhibition of the NLRP3 ATPase activity (cell-free, ADP-Glo); format: biochemical; details: isolated protein, 10 μM ATP
T2 construct: purchased BPS Bioscience, San Diego CA
Experimental: Inhibition of the NLRP3 ATPase activity. The efficacy of C77 to inhibit ATP hydrolysis by NLRP3 was directly assayed using a cell-free assay. Human recombinant NLRP3 protein (BPS Bioscience, San Diego CA) was incubated at 37° C. with different concentrations of C77 for 20 min, as previously described (Cocco, M., et al. (2017) Development of an Acrylate Derivative Targeting the NLRP3 Inflammasome for the Treatment of Inflammatory Bowel Disease. J. Med. Chem. 60, 3656-3671). 10 μM ultrapure ATP was then added, and reaction mixtures were further incubated for 45 min. ATP conversion into ADP was determined using the ADP-Glo Kinase Assay (Promega), following the recommendations of the manufacturer, in a SpectraMax i3x Multimode Detection Platform.

[3] = system: NLRP3, caspase-1, IL-1β, IL-6, IL-8, and TNF-α gene expression; experiment: Gene expression analysis in cell cultures (FIG. 3C); format: cell-based, human
Experimental: (§1) Gene expression analysis. RNA was isolated from frontal cortex from C57BL/6J mice or from THP1 human cultures using the RNeasy Mini Kit (QIAGEN, Hilden, Germany), following the recommendations of the manufacturer. RNA concentration was determined, and cDNA was synthesized using the High-Capacity cDNA Reverse Transcription Kit with RNase Inhibitor (applied biosystems™). The expression levels of inflammatory genes—NLRP3, caspase-1, IL-1β, TNF-α, NLRC4, IL-18, and IL6—were determined in 4 replicates through PowerUp SYBER Green Master Mix (Thermofisher) using an ABI PRISM […] Sequence Detection System. Hypoxanthine phosphoribosyltransferase (HPRT) was used as an internal control in samples from mouse brains, and GAPDH in the case of THP1 lysates. Gene expression levels were normalized to control samples (mice or THP1 cells treated with PBS).

[4] = system: inflammasome priming (NLRP3, caspase-1, IL-1β, TNF-α, IL6, NLRC4 expression); experiment: In-vivo assessment of C77: RNA expression of inflammatory genes in mouse brain; design: species or system WT C57BL/6J mice; details: 50 mg/kg 2 hours before LPS administration
Experimental: as §1
Animals used in in-vivo assessments. WT C57BL/6J mice (stock #000664) were obtained from The Jackson Laboratory. Mice were housed in groups of five animals per cage on a 12:12 hours light/dark cycle. Water and food were provided ad libitum. 8-10 weeks males were used for experiments. All procedures were approved by the Institutional Animal Care and use Committee of the Icahn School of Medicine at Mount Sinai.
In-vivo assessment of C77. The ability of C77 to inhibit NLRP3 in-vivo was evaluated using WT C57BL/6J mice. […]

T2 sequence (Q96P20 whole entry): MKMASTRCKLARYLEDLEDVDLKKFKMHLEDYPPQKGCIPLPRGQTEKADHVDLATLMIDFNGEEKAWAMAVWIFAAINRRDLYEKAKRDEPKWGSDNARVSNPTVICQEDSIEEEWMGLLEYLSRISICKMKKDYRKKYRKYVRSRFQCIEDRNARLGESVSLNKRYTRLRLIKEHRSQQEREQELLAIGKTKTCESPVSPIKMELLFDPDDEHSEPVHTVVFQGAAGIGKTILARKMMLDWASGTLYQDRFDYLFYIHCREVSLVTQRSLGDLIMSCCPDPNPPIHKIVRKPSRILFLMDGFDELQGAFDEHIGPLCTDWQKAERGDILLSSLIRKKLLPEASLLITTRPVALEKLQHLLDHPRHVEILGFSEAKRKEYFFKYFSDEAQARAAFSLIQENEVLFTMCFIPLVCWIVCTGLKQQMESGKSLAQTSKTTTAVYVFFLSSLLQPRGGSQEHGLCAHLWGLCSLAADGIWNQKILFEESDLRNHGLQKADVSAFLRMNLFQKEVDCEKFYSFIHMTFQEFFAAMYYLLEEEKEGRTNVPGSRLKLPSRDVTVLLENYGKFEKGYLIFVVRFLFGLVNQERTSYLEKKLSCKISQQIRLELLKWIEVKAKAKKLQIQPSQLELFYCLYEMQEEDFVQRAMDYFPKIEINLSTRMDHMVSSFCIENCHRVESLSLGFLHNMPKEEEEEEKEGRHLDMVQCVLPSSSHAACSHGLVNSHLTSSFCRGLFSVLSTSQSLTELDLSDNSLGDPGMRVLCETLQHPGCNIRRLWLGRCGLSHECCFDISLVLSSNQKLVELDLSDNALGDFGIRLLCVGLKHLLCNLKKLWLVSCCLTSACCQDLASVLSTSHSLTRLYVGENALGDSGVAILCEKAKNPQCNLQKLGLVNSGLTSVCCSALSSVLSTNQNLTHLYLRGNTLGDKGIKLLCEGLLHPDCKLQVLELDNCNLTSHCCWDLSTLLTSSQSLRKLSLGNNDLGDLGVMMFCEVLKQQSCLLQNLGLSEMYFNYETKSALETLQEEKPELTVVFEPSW
T1 sequence (Q3UP24 whole entry): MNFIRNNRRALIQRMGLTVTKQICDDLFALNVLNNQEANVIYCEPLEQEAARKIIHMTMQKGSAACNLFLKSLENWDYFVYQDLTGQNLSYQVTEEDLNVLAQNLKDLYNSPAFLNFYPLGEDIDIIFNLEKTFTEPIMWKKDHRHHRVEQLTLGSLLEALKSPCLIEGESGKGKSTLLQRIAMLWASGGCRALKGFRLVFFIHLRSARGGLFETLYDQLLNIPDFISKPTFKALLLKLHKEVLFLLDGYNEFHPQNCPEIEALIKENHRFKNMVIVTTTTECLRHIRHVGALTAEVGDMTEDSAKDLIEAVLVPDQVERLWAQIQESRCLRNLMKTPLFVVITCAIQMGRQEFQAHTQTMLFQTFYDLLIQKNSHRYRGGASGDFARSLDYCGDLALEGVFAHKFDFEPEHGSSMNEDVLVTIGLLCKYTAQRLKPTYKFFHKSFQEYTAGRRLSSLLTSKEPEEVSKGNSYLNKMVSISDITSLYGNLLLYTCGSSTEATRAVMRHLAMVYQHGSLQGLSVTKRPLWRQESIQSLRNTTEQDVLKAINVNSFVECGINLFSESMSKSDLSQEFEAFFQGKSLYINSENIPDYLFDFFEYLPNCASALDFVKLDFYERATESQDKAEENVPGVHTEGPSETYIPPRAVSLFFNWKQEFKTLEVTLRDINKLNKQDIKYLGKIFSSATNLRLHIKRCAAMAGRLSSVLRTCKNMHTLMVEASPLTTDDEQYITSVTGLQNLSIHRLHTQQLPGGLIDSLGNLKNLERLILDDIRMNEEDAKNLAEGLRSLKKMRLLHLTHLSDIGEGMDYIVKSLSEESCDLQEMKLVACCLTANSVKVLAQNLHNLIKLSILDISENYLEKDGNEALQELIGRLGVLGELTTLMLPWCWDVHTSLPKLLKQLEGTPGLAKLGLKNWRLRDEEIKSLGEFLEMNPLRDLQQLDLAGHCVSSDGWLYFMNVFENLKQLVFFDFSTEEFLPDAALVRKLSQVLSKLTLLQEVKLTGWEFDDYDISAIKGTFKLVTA

IC50 [1]: 4150 ± 1650 nM
concentrations with statistically significant inhibition of NLRP3 ATPase activity [2]: ≥ 10 nM
IC50 ([2]; nonlinear fit): 40 nM
SMILES: O=C(Cn1c(=O)oc2ccccc21)NCc1cncc(-c2ccsc2)c1 [Compound C77]
expression of caspase-1 [3]: slightly reduced the expression of caspase-1
mRNA levels of IL-6, IL-8, or TNF-α [3]: did not modify the mRNA levels
transcriptional priming of NLRP3 or IL-1β [3]: did not affect the transcriptional priming
overexpression of inflammatory genes (NLRP3, IL1β, TNF-α, IL6) in mouse brain [4]: did not reduce the overexpression of these genes
